Measured values from PMC9421653 (Journal of Medicinal Chemistry, 2022).

Molecular target: T1, human GPR84 (Homo sapiens, UniProt P04899+Q9NQS5)
T1 construct: expressed in transfected cells; host or cells: Flp-In T-REx 293 cells, doxycycline-induced; membrane preparations
Assay: biochemical
Format: biochemical
Conditions: [35S]GTPγS assay; negative log of the IC50 in molar; mean ± SEM

T1 sequence (Q9NQS5+P04899 fused): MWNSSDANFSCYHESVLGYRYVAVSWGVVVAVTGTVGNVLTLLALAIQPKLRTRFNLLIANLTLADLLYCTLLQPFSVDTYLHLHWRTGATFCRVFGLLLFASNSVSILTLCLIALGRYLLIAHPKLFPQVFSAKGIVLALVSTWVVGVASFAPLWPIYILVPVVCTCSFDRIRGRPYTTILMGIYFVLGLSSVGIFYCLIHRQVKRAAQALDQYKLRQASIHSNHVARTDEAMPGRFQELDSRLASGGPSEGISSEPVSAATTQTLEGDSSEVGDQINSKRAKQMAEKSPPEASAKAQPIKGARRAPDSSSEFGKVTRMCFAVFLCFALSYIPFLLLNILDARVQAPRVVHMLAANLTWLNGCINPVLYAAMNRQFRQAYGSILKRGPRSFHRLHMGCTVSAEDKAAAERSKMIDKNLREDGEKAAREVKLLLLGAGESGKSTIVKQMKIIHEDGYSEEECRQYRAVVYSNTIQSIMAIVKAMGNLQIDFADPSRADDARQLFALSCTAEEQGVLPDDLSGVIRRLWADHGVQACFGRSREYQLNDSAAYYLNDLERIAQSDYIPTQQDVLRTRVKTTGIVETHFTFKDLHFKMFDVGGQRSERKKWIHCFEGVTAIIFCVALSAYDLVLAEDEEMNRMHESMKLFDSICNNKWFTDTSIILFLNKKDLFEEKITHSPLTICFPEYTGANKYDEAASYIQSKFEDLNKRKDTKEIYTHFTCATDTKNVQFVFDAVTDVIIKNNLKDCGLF

Structure (SMILES) | GTPγS (pIC50)
Fc1ccc(-c2nnc(Cc3c[nH]c4ccccc34)nc2-c2ccc(F)cc2)cc1 [Compound 5, 3-((5,6-Bis(4-fluorophenyl)-1,2,4-triazin-3-yl)methyl)-1H-indole] | 7.81 ± 0.04
FC(F)(F)Oc1ccccc1-c1cnnc(Cc2c[nH]c3ccccc23)n1 [Compound 26, 3-((5-(2-(Trifluoromethoxy)phenyl)-1,2,4-triazin-3-yl)methyl)-1H-indole] | <4.70
Cc1cc(Cc2nnc(-c3ccccc3)c(-c3ccccc3)n2)n[nH]1 [Compound 23, 3-((5-Methyl-1H-pyrazol-3-yl)methyl)-5,6-diphenyl-1,2,4-triazine] | 4.97 ± 0.23
CC(=O)NCc1ccc(-c2nc(Cc3c[nH]c4ccccc34)nnc2-c2ccccc2)cc1 [Compound 45, N-(4-(3-((1H-Indol-3-yl)methyl)-6-phenyl-1,2,4-triazin-5-yl)benzyl)acetamide] | 6.93 ± 0.06
Fc1ccc2c(Cc3nnc(-c4ccccc4)c(-c4ccccc4)n3)c[nH]c2c1 [Compound 15, 3-((5,6-Diphenyl-1,2,4-triazin-3-yl)methyl)-6-fluoro-1H-indole] | 6.65 ± 0.03
c1ccc(-c2nnc(Cc3c[nH]c4cnccc34)nc2-c2cnccn2)cc1 [Compound 59, 3-((6-Phenyl-5-(pyrazin-2-yl)-1,2,4-triazin-3-yl)methyl)-1H-pyrrolo[2,3-c]pyridine] | 5.38 ± 0.12
CCCCCc1nnc(-c2ccccc2)c(-c2ccccc2)n1 [Compound 21, 3-Pentyl-5,6-diphenyl-1,2,4-triazine] | 5.12 ± 0.05
COC(=O)c1ccc(-c2nnc(Cc3c[nH]c4cnccc34)nc2-c2ccccc2)cc1 [Compound 66, Methyl 4-(3-((1H-Pyrrolo[2,3-c]pyridin-3-yl)methyl)-5-phenyl-1,2,4-triazin-6-yl)benzoate] | 7.02 ± 0.06
c1ccc(-c2nnc(Cc3c[nH]c4cnccc34)nc2-c2ccc(CN3CCOCC3)cc2)cc1 [Compound 63, 4-(4-(3-((1H-Pyrrolo[2,3-c]pyridin-3-yl)methyl)-6-phenyl-1,2,4-triazin-5-yl)benzyl)morpholine] | 7.27 ± 0.06
CS(=O)(=O)NCc1ccc(-c2nc(Cc3c[nH]c4ccccc34)nnc2-c2ccccc2)cc1 [Compound 47, N-(4-(3-((1H-indol-3-yl)methyl)-6-phenyl-1,2,4-triazin-5-yl)benzyl)methanesulfonamide] | 6.72 ± 0.06
CNC(=O)c1ccc(-c2nnc(Cc3c[nH]c4ccncc34)nc2-c2ccccc2)cc1 [Compound 72, 4-(3-((1H-Pyrrolo[3,2-c]pyridin-3-yl)methyl)-5-phenyl-1,2,4-triazin-6-yl)-N-methylbenzamide] | 6.35 ± 0.06
CN(C)Cc1ccc(-c2nc(Cc3c[nH]c4ccccc34)nnc2-c2ccccc2)cc1 [Compound 43, 1-(4-(3-((1H-Indol-3-yl)methyl)-6-phenyl-1,2,4-triazin-5-yl)phenyl)-N,N-dimethylmethanamine] | 6.20 ± 0.05
OCc1ccc(-c2nc(Cc3c[nH]c4ccccc34)nnc2-c2ccccc2)cc1 [Compound 39, (4-(3-((1H-Indol-3-yl)methyl)-6-phenyl-1,2,4-triazin-5-yl)phenyl)methanol] | 7.16 ± 0.04
O=C(NCCO)c1ccc(-c2nnc(Cc3c[nH]c4cnccc34)nc2-c2ccccc2)cc1 [Compound 70, 4-(3-((1H-Pyrrolo[2,3-c]pyridin-3-yl)methyl)-5-phenyl-1,2,4-triazin-6-yl)-N-(2-hydroxyethyl)benzamide] | 7.04 ± 0.07
COc1ccc(-c2nnc(Cc3n[nH]c4ccccc34)nc2-c2ccc(OC)cc2)cc1 [Compound 14, 3-((5,6-Bis(4-methoxyphenyl)-1,2,4-triazin-3-yl)methyl)-1H-indazole] | 6.67 ± 0.03
CC(=O)NCCNC(=O)c1ccc(-c2nnc(Cc3c[nH]c4ccccc34)nc2-c2ccccc2)cc1 [Compound 79, 4-(3-((1H-Indol-3-yl)methyl)-5-phenyl-1,2,4-triazin-6-yl)-N-(2-acetamidoethyl)benzamide] | 6.26 ± 0.06
